Measured values taken from patent US20250066363A1, “Bicyclic DGK Inhibitors” (Incyte Corporation, priority 2023, published 2025).

Assays:
[1] = molecular target: DGKζ (Homo sapiens (Human), UniProt Q13574); test: In vitro DGKζ inhibition assay (ADP-Glo); type: biochemical; settings: second column of Table A, head printed DGKα, presumably DGKζ; His-tagged human recombinant DGKζ 0.4 nM, 30 μM ATP, 20 μM DLG
Method: (§1) The DGKα and DGKζ biochemical reactions were performed using His-tagged human recombinant enzymes (Signal Chem, DGKα, #D21-10BH; DGKζ, #D30-1OH)) and DLG (Dilauroyl-sn-glycerol) lipid substrate (Signal Chem, #D430-59). ADP-Glo assay was performed using ADP-Glo™ kinase Assay kit (Promega, #V9104). The reactions were carried out in assay buffer containing 40 mM Tris, pH 7.5, 0.1% CHAPS, 0.1% Prionex, 40 mM NaCl, 5 mM MgCl2, 1 mM CaCl2, and 1 mM DTT. DGKα reactions contained 0.1 nM DGKα, 50 μM ATP, and 20 μM DLG. And DGKζ reactions contained 0.4 nM DGKζ, 30 μM ATP, and 20 μM DLG.
(§2) For compound inhibition studies, 40 nL test compound in DMSO was added to wells of white polystyrene plates in 384-well (Greiner, #784075) or 1536-well format (Greiner, #782075). Compounds were added with top concentration of 2 mM with 11 point, 3-fold dilution series. Enzyme solution (contains 2× DGK enzyme concentration in 1× assay buffer) was added to the plate in 2 μL/well volume, followed by 2 μL/well of substrate solution (contains 2× concentration of ATP and DLG substrate in 1× assay buffer). Plates were then centrifuged for 1 min at 1200 RPM and sealed or lidded. For 4 μL reaction volume, test compounds were therefore diluted 100× to final top concentration of 20 μM. After 90 minute incubation, reactions were quenched by addition of 2 μL/well Promega ADP-Glo Reagent, followed by centrifugation and lidding. After 60 min incubation, 2 μL/well Promega Kinase Detection Reagent was added, plates centrifuged, and incubated for 30 min. Plates were then read using Luminescence method on BMG PHERAstar FSX plate reader. Percent inhibition was calculated and IC50s were determined using 4-parameter fit in Genedata Screener. Labcyte Echo acoustic dispenser was used for compound addition, and Formulatrix Tempest liquid handler was used for all reagent dispenses.

[2] = molecular target: DGKα (Homo sapiens (Human), UniProt P23743); test: In vitro DGKα inhibition assay (ADP-Glo); type: biochemical; settings: first column of Table A; His-tagged human recombinant DGKα 0.1 nM, 50 μM ATP, 20 μM DLG
DGKα, sequence (P23743 whole entry): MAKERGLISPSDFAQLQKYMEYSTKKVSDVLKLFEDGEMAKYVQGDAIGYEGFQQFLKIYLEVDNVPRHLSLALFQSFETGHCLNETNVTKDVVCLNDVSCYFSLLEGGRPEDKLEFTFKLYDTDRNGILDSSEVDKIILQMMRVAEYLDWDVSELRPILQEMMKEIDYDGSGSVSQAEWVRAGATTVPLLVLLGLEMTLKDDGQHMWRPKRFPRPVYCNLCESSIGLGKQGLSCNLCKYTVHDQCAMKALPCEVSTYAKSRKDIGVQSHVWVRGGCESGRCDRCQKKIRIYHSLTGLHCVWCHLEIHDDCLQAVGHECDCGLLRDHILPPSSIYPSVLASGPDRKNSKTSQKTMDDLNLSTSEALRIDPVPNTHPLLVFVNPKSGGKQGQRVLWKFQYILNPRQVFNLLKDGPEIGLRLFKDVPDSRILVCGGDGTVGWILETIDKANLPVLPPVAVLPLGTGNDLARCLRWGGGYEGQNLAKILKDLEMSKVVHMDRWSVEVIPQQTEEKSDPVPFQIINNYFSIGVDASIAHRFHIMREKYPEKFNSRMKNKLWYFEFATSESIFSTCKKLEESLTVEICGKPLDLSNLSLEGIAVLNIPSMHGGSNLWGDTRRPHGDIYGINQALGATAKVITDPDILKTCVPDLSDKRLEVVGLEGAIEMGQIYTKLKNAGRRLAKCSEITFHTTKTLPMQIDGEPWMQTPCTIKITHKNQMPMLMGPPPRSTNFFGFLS
Method: as §1, §2

DGKζ, sequence (Q13574 whole entry): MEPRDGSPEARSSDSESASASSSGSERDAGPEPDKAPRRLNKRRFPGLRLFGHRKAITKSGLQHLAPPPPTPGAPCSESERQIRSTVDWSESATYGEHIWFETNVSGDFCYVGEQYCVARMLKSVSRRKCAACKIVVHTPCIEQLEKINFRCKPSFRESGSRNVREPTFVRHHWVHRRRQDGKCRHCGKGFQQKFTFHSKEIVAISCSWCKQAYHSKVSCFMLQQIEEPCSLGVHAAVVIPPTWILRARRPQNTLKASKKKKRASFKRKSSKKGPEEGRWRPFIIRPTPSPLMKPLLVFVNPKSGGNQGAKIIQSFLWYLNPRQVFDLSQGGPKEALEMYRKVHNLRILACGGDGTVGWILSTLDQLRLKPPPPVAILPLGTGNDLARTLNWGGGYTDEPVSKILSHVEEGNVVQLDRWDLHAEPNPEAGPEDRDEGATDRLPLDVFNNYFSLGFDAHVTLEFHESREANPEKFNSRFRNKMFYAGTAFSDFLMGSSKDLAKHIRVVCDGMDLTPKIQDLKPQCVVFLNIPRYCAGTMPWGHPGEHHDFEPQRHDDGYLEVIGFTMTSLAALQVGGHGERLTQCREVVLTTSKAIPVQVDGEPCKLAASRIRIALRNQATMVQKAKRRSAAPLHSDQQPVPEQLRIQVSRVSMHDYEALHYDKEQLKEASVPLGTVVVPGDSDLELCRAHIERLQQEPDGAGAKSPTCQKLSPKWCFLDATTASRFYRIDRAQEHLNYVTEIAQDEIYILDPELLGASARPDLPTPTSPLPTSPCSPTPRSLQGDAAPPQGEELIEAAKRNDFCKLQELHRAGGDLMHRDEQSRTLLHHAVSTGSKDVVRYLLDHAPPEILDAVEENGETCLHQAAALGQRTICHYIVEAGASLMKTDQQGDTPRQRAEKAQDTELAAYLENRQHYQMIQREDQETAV

Row | SMILES | IC50 [1] | IC50 [2]
1 | CC(C)CC(c1ccc(Cl)cc1)N1C[C@H](C)N(c2nc(=O)n(C)c3c2ncn3C[C@H]2OCC[C@@H]2O)C[C@H]1C (single isomer, unassigned) [Example 19] | ≤ 10 nM | ≤ 10 nM
2 | CC[C@@H]1CN(c2nc(=O)n(C)c3c2nnn3C[C@H]2CCCO2)[C@@H](C)CN1C(CC(C)C)c1ccc(Cl)cc1 (single isomer, unassigned) [Example 20] | ≤ 10 nM | ≤ 10 nM
3 | Cc1nc2c(N3C[C@@H](C)N(C(c4ccc(C(F)(F)F)cc4)C4CC(F)(F)C4)C[C@@H]3C)nc(=O)n(C)c2n1C[C@H]1OCC[C@@H]1O (single isomer, unassigned) [Example 34] | ≤ 10 nM | ≤ 10 nM
4 | Cc1nc2c(N3C[C@@H](C)N(C(c4ccc(C(F)(F)F)cc4)C4CC(F)(F)C4)C[C@@H]3C)nc(=O)n(C)c2n1C[C@H]1OCC[C@H]1O (single isomer, unassigned) [Example 35] | ≤ 10 nM | ≤ 10 nM
5 | Cc1nc2c(N3C[C@@H](C(F)F)N(C(c4ccc(C(F)(F)F)cc4)C4CC(F)(F)C4)C[C@@H]3C)nc(=O)n(C)c2n1C[C@@H]1CCCO1 (single isomer, unassigned) [Example 42] | ≤ 10 nM | ≤ 10 nM
6 | CC[C@@H]1CN(c2nc(=O)n(C)c3c2nnn3CC2(O)CCC2)[C@@H](C)CN1C(C)c1ccc(C(F)(F)F)cc1 (single isomer, unassigned) [Example 64] | ≤ 10 nM | ≤ 10 nM
7 | C[C@@H]1CN(c2nc(=O)n(C)c3c2ncn3CC2(O)CCCC2)[C@@H](C)CN1C(c1ccc(Cl)cc1)C1CC(F)(F)C1 (single isomer, unassigned) [Example 66] | ≤ 10 nM | ≤ 10 nM
8 | Cc1nc2c(N3C[C@@H](C)N(C(c4ccc(F)cc4)c4ccc(F)cc4)C[C@@H]3C)nc(=O)n(C)c2n1C[C@@H]1CCCO1 [Example 2, 6-((2S,5R)-4-(Bis(4-fluorophenyl)methyl)-2,5-dimethylpiperazin-1-yl)-3,8-dimethyl-9-(((S)-tetrahydrofuran-2-yl)methyl)-3,9-dihydro-2H-purin-2-one] | ≤ 10 nM | ≤ 10 nM
9 | CC[C@@H]1CN(c2nc(=O)n(C)c3c2nc(C)n3C[C@@H]2CCCO2)[C@@H](C)CN1C(c1ccc(F)cc1)c1ccc(F)cc1 [Example 5, 6-((2S,5R)-4-(Bis(4-fluorophenyl)methyl)-5-ethyl-2-methylpiperazin-1-yl)-3,8-dimethyl-9-(((S)-tetrahydrofuran-2-yl)methyl)-3,9-dihydro-2H-purin-2-one] | ≤ 10 nM | ≤ 10 nM
10 | C[C@@H]1CN(c2nc(=O)n(C)c3c2cnn3C)[C@@H](C)CN1C(c1ccc(F)cc1)c1ccc(F)cc1 [Example 7, 4-((2S,5R)-4-(Bis(4-fluorophenyl)methyl)-2,5-dimethylpiperazin-1-yl)-1,7-dimethyl-1,7-dihydro-6H-pyrazolo[3,4-d]pyrimidin-6-one] | > 1000 nM | ≤ 10 nM
11 | C[C@@H]1CN(c2nc(=O)[nH]c3c2ncn3C[C@@H]2CCCO2)[C@@H](C)CN1C(c1ccc(F)cc1)c1ccc(F)cc1 [Example 9, 6-((2S,5R)-4-(Bis(4-fluorophenyl)methyl)-2,5-dimethylpiperazin-1-yl)-9-(((S)-tetrahydrofuran-2-yl)methyl)-3,9-dihydro-2H-purin-2-one] | ≤ 100 nM | ≤ 100 nM
12 | Cc1nc2c(N3C[C@@H](C)N(C(c4ccc(F)cc4)c4ccc(F)cc4)C[C@@H]3C)cc(=O)n(C)c2n1C[C@@H]1CCCO1 [Example 11, 7-((2S,5R)-4-(Bis(4-fluorophenyl)methyl)-2,5-dimethylpiperazin-1-yl)-2,4-dimethyl-3-(((S)-tetrahydrofuran-2-yl)methyl)-3,4-dihydro-5H-imidazo[4,5-b]pyridin-5-one] | ≤ 10 nM | ≤ 10 nM
13 | C[C@@H]1CN(c2nc(=O)n(C)c3c2nnn3C[C@@H]2CCCO2)[C@@H](C)CN1C(c1ccc(F)cc1)c1ccc(F)cc1 [Example 12, 7-((2S,5R)-4-(Bis(4-fluorophenyl)methyl)-2,5-dimethylpiperazin-1-yl)-4-methyl-3-(((S)-tetrahydrofuran-2-yl)methyl)-3,4-dihydro-5H-[1,2,3]triazolo[4,5-d]pyrimidin-5-one] | ≤ 10 nM | ≤ 10 nM

More lines, now with the values ahead:

Row | IC50 [1] | IC50 [2] | SMILES
14 | ≤ 100 nM | ≤ 10 nM | Cc1nc2c(N3C[C@@H](C)N(C(c4ccc(C(F)(F)F)cc4)C4CC(F)(F)C4)C[C@@H]3C)nc(=O)[nH]c2n1C[C@@H]1CCCO1 (single isomer, unassigned) [Example 14]
15 | ≤ 10 nM | ≤ 10 nM | Cc1nc2c(N3C[C@@H](C)N(C(c4ccc(C(F)(F)F)cc4)C4CC(F)(F)C4)C[C@@H]3C)nc(=O)n(C)c2n1C[C@@H]1CCCO1 (single isomer, unassigned) [Example 15]
16 | ≤ 10 nM | ≤ 10 nM | CC(C)CC(c1ccc(Cl)cc1)N1C[C@H](C)N(c2nc(=O)n(C)c3c2nnn3C[C@@H]2CCCO2)C[C@H]1C (single isomer, unassigned) [Example 17]
17 | ≤ 10 nM | ≤ 10 nM | CC(C)CC(c1ccc(Cl)cc1)N1C[C@H](C)N(c2nc(=O)n(C)c3c2nnn3C[C@H]2CCCO2)C[C@H]1C (single isomer, unassigned) [Example 18]
18 | ≤ 10 nM |  | Cc1nc2c(N3C[C@@H](C)N(C(c4ccc(C(F)(F)F)cc4)[C@H]4CC4(F)F)C[C@@H]3C)nc(=O)n(C)c2n1C[C@@H]1CCCO1 (single isomer, unassigned) [Example 21]
19 | ≤ 10 nM | ≤ 10 nM | CC[C@@H]1CN(c2nc(=O)n(C)c3c2nc(C)n3C[C@@H]2CCCO2)[C@@H](C)CN1C(c1ccc(C(F)(F)F)c(F)c1)C(C)C (single isomer, unassigned) [Example 46]
20 | ≤ 10 nM | ≤ 10 nM | CC[C@@H]1CN(c2nc(=O)n(C)c3c2nc(C)n3C[C@H]2OCC[C@@H]2O)[C@@H](C)CN1C(c1ccc(C(F)(F)F)cc1)C1CC(F)(F)C1 (single isomer, unassigned) [Example 68]
21 | ≤ 10 nM | ≤ 10 nM | CCC(c1ccc(C(F)(F)F)cc1)N1C[C@H](C)N(c2nc(=O)n(C)c3c2ncn3CC2(O)CCCC2)C[C@H]1CC (single isomer, unassigned) [Example 73]
22 | ≤ 100 nM | ≤ 10 nM | Cc1nc2c(N3C[C@@H](C)N(C(c4ccc(F)cc4)c4ccc(F)cc4)C[C@@H]3C)nc(=O)[nH]c2n1C[C@@H]1CCCO1 [Example 1, 6-((2S,5R)-4-(Bis(4-fluorophenyl)methyl)-2,5-dimethylpiperazin-1-yl)-8-methyl-9-(((S)-tetrahydrofuran-2-yl)methyl)-3,9-dihydro-2H-purin-2-one]
23 | ≤ 10 nM | ≤ 10 nM | Cc1nc2c(N3C[C@@H](CO)N(C(c4ccc(F)cc4)c4ccc(F)cc4)C[C@@H]3C)nc(=O)n(C)c2n1C[C@@H]1CCCO1 [Example 3, 6-((2S,5S)-4-(Bis(4-fluorophenyl)methyl)-5-(hydroxymethyl)-2-methylpiperazin-1-yl)-3,8-dimethyl-9-(((S)-tetrahydrofuran-2-yl)methyl)-3,9-dihydro-2H-purin-2-one]
24 | ≤ 10 nM | ≤ 10 nM | CC[C@@H]1CN(c2nc(=O)[nH]c3c2nc(C)n3C[C@@H]2CCCO2)[C@@H](C)CN1C(c1ccc(F)cc1)c1ccc(F)cc1 [Example 4, 6-((2S,5R)-4-(Bis(4-fluorophenyl)methyl)-5-ethyl-2-methylpiperazin-1-yl)-8-methyl-9-(((S)-tetrahydrofuran-2-yl)methyl)-3,9-dihydro-2H-purin-2-one]
25 | ≤ 100 nM | ≤ 10 nM | C[C@@H]1CN(c2nc(=O)n(C)c3c2ccn3C[C@@H]2CCCO2)[C@@H](C)CN1C(c1ccc(F)cc1)c1ccc(F)cc1 [Example 6, 4-((2S,5R)-4-(Bis(4-fluorophenyl)methyl)-2,5-dimethylpiperazin-1-yl)-1-methyl-7-(((S)-tetrahydrofuran-2-yl)methyl)-1,7-dihydro-2H-pyrrolo[2,3-d]pyrimidin-2-one]
26 | ≤ 100 nM | ≤ 100 nM | C[C@@H]1CN(c2nc(=O)n(C)c3c2c(F)cn3C[C@@H]2CCCO2)[C@@H](C)CN1C(c1ccc(F)cc1)c1ccc(F)cc1 [Example 8, 4-((2S,5R)-4-(Bis(4-fluorophenyl)methyl)-2,5-dimethylpiperazin-1-yl)-5-fluoro-1-methyl-7-(((S)-tetrahydrofuran-2-yl)methyl)-1,7-dihydro-2H-pyrrolo[2,3-d]pyrimidin-2-one]
27 | ≤ 10 nM | ≤ 10 nM | C[C@@H]1CN(c2nc(=O)n(C)c3c2ncn3C[C@@H]2CCCO2)[C@@H](C)CN1C(c1ccc(F)cc1)c1ccc(F)cc1 [Example 10, 6-((2S,5R)-4-(Bis(4-fluorophenyl)methyl)-2,5-dimethylpiperazin-1-yl)-3-methyl-9-(((S)-tetrahydrofuran-2-yl)methyl)-3,9-dihydro-2H-purin-2-one]
